For one experiment, the target named is T1, thromboxane A2 receptor (Cavia porcellus, UniProt A0A286Y4I8).
T1 construct: platelet-rich plasma; endogenous in cells; host or cells: guinea-pig platelets in platelet-rich plasma
T1 sequence (A0A286Y4I8 1-347): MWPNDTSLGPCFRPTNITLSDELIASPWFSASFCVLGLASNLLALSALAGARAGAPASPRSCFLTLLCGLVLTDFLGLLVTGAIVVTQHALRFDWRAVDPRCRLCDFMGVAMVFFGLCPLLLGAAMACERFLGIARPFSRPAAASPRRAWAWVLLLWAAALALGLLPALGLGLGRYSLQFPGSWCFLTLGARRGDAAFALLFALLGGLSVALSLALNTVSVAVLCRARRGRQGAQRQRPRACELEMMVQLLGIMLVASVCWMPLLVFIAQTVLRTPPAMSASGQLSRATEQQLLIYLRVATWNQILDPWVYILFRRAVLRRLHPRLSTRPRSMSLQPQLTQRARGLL
Nature of the experiment: Thromboxane A2 antagonistic effect: inhibition of U-46619-induced platelet aggregation in guinea-pig platelet-rich plasma. In kind it is cell-based, guinea-pigs. Conditions: guinea-pig PRP, U-46619 2 μg/ml, 2 min at 37° C.; read-out: IC50 (50% inhibition against platelet aggregation). The procedure: Blood was collected from the abdominal aorta of guinea-pigs (about 400 g wt.) into 1/10 volume of 3.8% sodium citrate, and then platelet-rich plasma (PRP: 6×10^5 cells/μl) was obtained by centrifugation. A cuvette was filled with PRP 190 μl and set in an aggregometer (Hema Tracer I; Niko Bioscience). Incubation was carried out for 2 min. at 37° C. after the addition of 1 μl of dimethyl sulfoxide solution of test compounds. To the PRP, 10 μl of U-46619 (Cayman), a thromboxane A2 /prostaglandin H2 receptor agonist and potent platelet aggregation inducer, was added at the final concentration of 2 μg/ml, and platelet aggregation was measured by an aggregometer.

A further experiment concerns the target T2, leukotriene D4 (Cavia porcellus, UniProt Q2NNR5).
T2 construct: tracheas were isolated from male Hartley guinea-pigs; from tissue; host or cells: isolated trachea of male Hartley guinea-pigs
T2 sequence (Q2NNR5 1-340): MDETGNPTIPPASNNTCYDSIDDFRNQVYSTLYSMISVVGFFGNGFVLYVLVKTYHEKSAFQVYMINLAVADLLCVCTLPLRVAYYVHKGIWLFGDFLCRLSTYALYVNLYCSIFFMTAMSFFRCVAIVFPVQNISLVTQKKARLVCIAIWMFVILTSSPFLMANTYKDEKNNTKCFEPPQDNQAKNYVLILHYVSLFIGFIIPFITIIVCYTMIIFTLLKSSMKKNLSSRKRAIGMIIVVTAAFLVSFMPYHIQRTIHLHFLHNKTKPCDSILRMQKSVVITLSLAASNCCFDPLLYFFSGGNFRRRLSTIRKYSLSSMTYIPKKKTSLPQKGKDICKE
Nature of the experiment: Leukotriene D4 antagonistic effect in isolated trachea (Schild method). Set-up: species or system male Hartley guinea-pigs. Conditions: isolated trachea, 30 min treatment, indomethacin 3×10^-6 M, Krebs 37° C. The method, then: According to an ordinary method, tracheas were isolated from male Hartley guinea-pigs, and ring specimens of approximately […] length were prepared. These specimens were suspended isotonically in organ baths that contained Krebs solution at 37° C. under a resting tension of 0.5 g. After repeated contractions with acetylcholine (1×10^-6 M; Ovisot for injection, Daiichi Seiyaku), and the first concentration-response curves was obtained by cummulative applications of leukotriene D4 (ULTRA FINE) into the organ baths. After treatments with test compounds at adequate concentrations for 30 min, the second concentration-response curves were obtained in the same manner as first applications. pKB values were calculated using these two concentration-response curves according to the method of Schild [Pharmacological Review, Vol. 9, 242 (1957)]. Indomethacin (3×10^-6 M; Sigma) was added beforehand to the organ bath to eliminate possible affections by thromboxane A2 and prostaglandin produced by stimulus of leukotriene D4 [Japan J. Pharmacol., Vol. 60, 227 (1992)].

For experiment [1], the system named is broncho-constriction induced by leukotriene D4. Description: Inhibitory effect on broncho-constriction induced by leukotriene D4 (Konzett-Roessler method, oral). Conditions: Cavia porcellus, po; 30 mg/kg orally, leukotriene D4 1 μg/kg after 2 hr; indomethacin and propranolol pretreatment; read-out: Inhibition rate. In kind it is in vivo, male Hartley guinea-pig. The procedure:
Airway resistance was evaluated according to the method of Konzett-Roessler[Naunyn-Schmiedberg's Arch. Exp. Path. Pharmak., Vol. 195, 71 (1940)]. After male Hartley guinea-pig fasted beforehand for 24 hr were anesthetized with urethane, overflowed air volume was measured under artificial ventilation as an index of broncho-constriction. 30 mg/kg (5 ml/kg) of test compounds suspended in 5% gum Arabic were administered orally to […]. Leukotriene D4 (1 μg/kg; ULTRA FINE) was administered through the cervical vein after 2 hr, and then values were measured at 2 min after the time when responses became maximum. Inhibitory rates compared to the control group were calculated based on the response rate normalized by the overflowed volume at complete closure as 100% broncho-constriction state. Indomethacin (2 mg/kg, i.v.) and propranolol (1 mg/kg, i.v.) were administered at 10 min and 5 min before the administration of leukotriene D4, respectively.

The test system of experiment [2] is broncho-constriction induced by U-46619. Description: Inhibitory effect on broncho-constriction induced by U-46619 (Konzett-Roessler method, oral). Format: in vivo, Male hartley guinea-pigs. Particulars: 0.3 mg/kg orally, 2 hrs before U-46619 4 μg/kg. The method, then:
Airway resistance was evaluated according to the method of Konzett-Roessler[Naunyn-Schmiedberg's Arch. Exp. Path. Pharmak., Vol. 195, 71 (1940)]. Male hartley guinea-pigs (about 400 g wt.) were anesthetized with urethane (1.5 g/kg, i.p.) and ventilated by an artificial respirator (Model 683; Harvard). At that time, overflowed air volume above the pressure of about 12 cm H2 O was measured by using a sensor (Model 7020; Ugo basile) and the value was used as an index of broncho-constriction. 0.3 mg/kg (5 ml/kg) of test compounds suspended in 5% gum Arabic was administered orally to Guinea-pigs fasted beforehand for 24 hr. After 2 hrs, U-46619 (4 μg/kg; Cayman) was administered through the cervical vein, and then maximal response was measured. Inhibitory rates compared to the reference group were calculated based on the response rate normalized by the complete closure as 100%.

In general, IC50 refers to the concentration at which inhibition is half-maximal. For orientation: Kb means the equilibrium dissociation constant of an antagonist, usually derived from a functional assay. Low readings indicate a more potent antagonist, high ones a less potent antagonist. In the case of `O=C(O)CCCc1ccc(C(CC2CC3CCC2C3)NS(=O)(=O)c2ccc(Cl)cc2)cc1` (stereo not shown) [Example 85, 4-[4-[1-(4-Chlorophenylsulfonylamino)-2-(2-norbornyl)ethyl]phenyl]butyric Acid], at thromboxane A2 receptor, the IC50 is 400 nM. The Kb on leukotriene D4 is 158 nM.
Take `O=C(O)CCCc1ccc(C(CC2CCCC2)NS(=O)(=O)c2ccc(Cl)cc2)cc1` (stereo not shown) [Example 78, 4-[4-[1-(4-Chlorophenylsulfonylamino)-2-cyclopentylethyl]phenyl]butyric Acid]: the IC50 on thromboxane A2 receptor worked out at 320 nM. At leukotriene D4, this compound had a Kb of 1000 nM.
Turning to `CCCCCC(NS(=O)(=O)c1ccc(Br)cc1)c1ccc(CCCC(=O)O)cc1` (stereo not shown) [Example 104, 4-[4-[1-(4-Bromophenylsulfonylamino)hexyl]phenyl]butyric Acid], the inhibition in vivo at 30 mg/kg in experiment [1] came to 83%.
For `CC(C)CCCC(NS(=O)(=O)c1ccc(Cl)cc1)c1ccc(CCCC(=O)O)cc1` (stereo not shown) [Example 107, 4-[4-[1-(4-Chlorophenylsulfonylamino)-5-methylhexyl]phenyl]butyric Acid], the half-inhibitory concentration (IC50) on thromboxane A2 receptor was 250 nM. In addition, the inhibition in vivo at 30 mg/kg in experiment [1] stood at 83%. On leukotriene D4, this compound had a Kb of 100 nM.
Regarding `O=C(O)CCCc1ccc(C(CCCCCc2ccccc2)NS(=O)(=O)c2ccc(Cl)cc2)cc1` (stereo not shown) [Example 116, 4-[4-[1-(4-Chlorophenylsulfonylamino)-6-phenylhexyl]phenyl]butyric Acid], at thromboxane A2 receptor, the IC50 worked out at 500 nM. The same compound showed a Kb on leukotriene D4 of 200 nM.
In the case of `O=C(O)CCCc1ccc(C(CC2CCCCC2)NS(=O)(=O)c2ccc(Cl)cc2)cc1` (stereo not shown) [Example 79, 4-[4-[1-(4-Chlorophenylsulfonylamino)-2-cyclohexylethyl]phenyl]butyric Acid], the IC50 at thromboxane A2 receptor was 320 nM. Further, the Inhibition rate in experiment [2] is listed as 55%. At leukotriene D4, the antagonist dissociation constant (Kb) was 100 nM.
As to `O=C(O)CCCc1ccc(C(CC23CC4CC(CC(C4)C2)C3)NS(=O)(=O)c2ccc(Cl)cc2)cc1` (stereo not shown) [Example 84, 4-[4-[2-(1-Adamantyl)-1-(4-chlorophenylsulfonylamino)ethyl]phenyl]butyric Acid], the Kb at leukotriene D4 was 200 nM.
As to `CC(C)CCCCC(NS(=O)(=O)c1ccc(Cl)cc1)c1ccc(CCCC(=O)O)cc1` (stereo not shown) [Example 108, 4-[4-[1-(4-Chlorophenylsulfonylamino)-6-methylheptyl]phenyl]-butyric Acid], the IC50 at thromboxane A2 receptor amounted to 500 nM. Further, the inhibition in vivo at 30 mg/kg in experiment [1] was determined as 82%. Further, the Kb at leukotriene D4 was 158 nM.
Take `CCCCC(NS(=O)(=O)c1ccc(Cl)cc1)c1ccc(CCCCC(=O)O)cc1` (stereo not shown) [Example 102, 5-[4-[1-(4-Chlorophenylsulfonylamino)pentyl]phenyl]valeric Acid]: the inhibition in vivo at 30 mg/kg in experiment [1] turned out to be 50%. This compound showed a Kb on leukotriene D4 of 200 nM.
On to `O=C(O)CCCc1ccc(C(Cc2ccc(F)cc2)NS(=O)(=O)c2ccc(Cl)cc2)cc1` (stereo not shown) [Example 95, 4-[4-[1-(4-Chlorophenylsulfonylamino)-2-(4-fluorophenyl)ethyl]phenyl]butyric Acid], for which the IC50 on thromboxane A2 receptor is 160 nM. The Kb on leukotriene D4 was 501 nM.
Regarding `O=C(O)CCCc1ccc(C(NS(=O)(=O)c2ccc(Cl)cc2)C2CCCCCC2)cc1` (stereo not shown) [Example 75, 4-[4-[(4-Chlorophenylsulfonylamino)cycloheptylmethyl]phenyl]butyric Acid], the 50% inhibitory concentration (IC50) on thromboxane A2 receptor came out at 320 nM. In addition, the Kb at leukotriene D4 was 398 nM.
The compound `C[C@H]1CC[C@H](C(NS(=O)(=O)c2ccc(Cl)cc2)c2ccc(CCCC(=O)O)cc2)CC1` (relative stereo) [Example 76, trans-4-[4-[(4-Chlorophenylsulfonylamino)(4-methylcyclohexyl)methyl]phenyl]butyric Acid] had a Kb on leukotriene D4 of 200 nM.
`CCCCc1ccc(CCC(NS(=O)(=O)c2ccc(Cl)cc2)c2ccc(CCCC(=O)O)cc2)cc1` (stereo not shown) [Example 117, 4-[4-[3-(4-Butylphenyl)-1-(4-chlorophenylsulfonylamino)propyl]phenyl]butyric Acid]: the Kb on leukotriene D4 is 251 nM.
As for `CCCCCC(NS(=O)(=O)c1ccc(F)cc1)c1ccc(CCCC(=O)O)cc1` (stereo not shown) [Example 105, 4-[4-[1-(4-Fluorophenylsulfonylamino)hexyl]phenyl]butyric Acid], the inhibition in vivo at 30 mg/kg in experiment [1] stood at 82%.
Regarding `CCCCCC(NS(=O)(=O)c1ccc(Cl)cc1)c1ccc(CCCCC(=O)O)cc1` (stereo not shown) [Example 106, 5-[4-[1-(4-Chlorophenylsulfonylamino)hexyl]phenyl]valeric Acid], the inhibition in vivo at 30 mg/kg in experiment [1] was found to be 58%. Also, the Kb on leukotriene D4 is 126 nM.
In the case of `O=C(O)CCCCc1ccc(C(CC2CCCCC2)NS(=O)(=O)c2ccc(Cl)cc2)cc1` (stereo not shown) [Example 113, 5-[4-[1-(4-Chlorophenylsulfonylamino)-2-cyclohexylethyl]phenyl]valeric Acid], the 50% inhibitory concentration (IC50) at thromboxane A2 receptor is 400 nM. On leukotriene D4, this compound gave a Kb of 39.8 nM.
As for `CCCCC[C@H]1CC[C@H](C(NS(=O)(=O)c2ccc(Cl)cc2)c2ccc(CCCC(=O)O)cc2)CC1` (relative stereo) [Example 77, trans-4-[4-[(4-Chlorophenylsulfonylamino)(4-pentylcyclohexyl)methyl]phenyl]butyric Acid], the antagonist equilibrium constant (Kb) at leukotriene D4 is 631 nM.
As to `CCCCCC(NS(=O)(=O)c1ccc(Cl)cc1)c1ccc(CCCC(=O)O)cc1` (stereo not shown) [Example 67, 4-[4-[1-(4-Chlorophenylsulfonylamino)hexyl]phenyl]butyric Acid], the IC50 on thromboxane A2 receptor came to 400 nM. Besides, in experiment [1], the inhibition in vivo at 30 mg/kg was 80%. Also, in experiment [2], the Inhibition rate is 86%.
For `CC(C)CCC(NS(=O)(=O)c1ccc(Cl)cc1)c1ccc(CCCC(=O)O)cc1` (stereo not shown) [Example 71, 4-[4-[1-(4-Chlorophenylsulfonylamino)-4-methylpentyl]phenyl]butyric Acid], on thromboxane A2 receptor, the IC50 is 400 nM. For the same compound, the inhibition in vivo at 30 mg/kg in experiment [1] stood at 68%. Further, the Kb on leukotriene D4 was 200 nM.
On to `CCCCCCC(NS(=O)(=O)c1ccc(Cl)cc1)c1ccc(CCCC(=O)O)cc1` (stereo not shown) [Example 99, 4-[4-[1-(4-Chlorophenylsulfonylamino)heptyl]phenyl]butyric Acid], for which the IC50 on thromboxane A2 receptor is 320 nM. Further, the inhibition in vivo at 30 mg/kg in experiment [1] was 64%. At leukotriene D4, this compound showed a Kb of 126 nM.
For `O=C(O)CCCc1ccc(C(CCC2CCCCC2)NS(=O)(=O)c2ccc(Cl)cc2)cc1` (stereo not shown) [Example 80, 4-[4-[1-(4-Chlorophenylsulfonylamino)-3-cyclohexylpropyl]phenyl]butyric Acid], in that order: 1000 nM, 60% and 126 nM.

The values above are taken from US5597848A, “Benzenesulfonamide derivatives and use thereof” (Hokuriku Seiyaku Co., Ltd., priority 1992, dated 1997).
